From publication PMC12029898, “Cellular Metabolomics Reveals Differences in the Scope of Liver Protection Between Ammonium-Based Glycyrrhizinate and Magnesium Isoglycyrrhizinate” (Metabolites, 2025)

Assays:
Format in all cases: cell-based, human
LO2 cells = test: Cell metabolomics (UPLC-MS/MSe) of APAP-injured LO2 cells, differential metabolites DIAM vs MAGN; conditions: 600 μM, 48 h
Method: LC-MS/MS analysis was conducted utilizing a Waters Acquity H UPLC system, interfaced with a Q-MS detector (Xevo G3 QTof, Waters, Milford, MA, USA). Chromatographic separation of metabolites was achieved on a BEH C18 Column (1.7 µm, 2.1 mm × 100 mm, Waters), maintained at a temperature of 40 °C. The injector sample chamber was maintained at 4 °C to ensure optimal sample handling. For positive ion analysis, the mobile phase comprised two solvents, 0.1% formic acid in water (solvent A) and acetonitrile (solvent B), delivered at a flow rate of 300 μL/min. The elution gradient was programmed as follows (acetonitrile percentage): 0–1 min 5%, 1–2 min 5–30%, 2–4 min 30–50%, 4–16 min 50–90%, 19–21 min 95%, 21–21.1 min 95–5%, and 21.1–23 min 5%. The capillary, sample cone, and source offset were set as 2.18 kV, 40, and 30. The temperatures of the source and desolvation were 100 and 600 °C. The gas flow of the cone gas and desolvation gas was set as 50 and 800 L/h. For the negative ion mode, the mobile phase consisted of 10 mM ammonium acetate (solvent A) and acetonitrile (solvent B), delivered at a flow rate of 300 μL/min. The elution gradient was programmed as follows: 0–1 min, 5%; 1–3 min, 5–80%; 3–4 min, 80–82%; 4–6 min, 82–88%; 6–25 min, 88–92%; 25–27 min, 92–95%; 27–27.1 min, 95–5%; 27.1–29 min, 5%. The mass spectrometry conditions were similar to those employed in the positive mode, with the exception of the capillary voltage, which was set to 2 kV. All samples were analyzed using an ESI source in MSe full scan mode, with a mass range spanning from m/z 50 to 2000 and a scan time of 0.5 s. Additionally, an automatic calibration system was employed to automatically adjust the MS and MSe parameters every 10 s.
LO2 cells in the logarithmic growth phase were seeded into a 6-well plate at a density of 3 × 10^4 cells per well and incubated overnight under conditions of 37 °C and 5% CO2. Subsequently, varying concentrations of APAP were introduced, and MONO, DIAM, and MAGN were dissolved in the culture medium prior to their addition to the wells, ensuring a final concentration of 600 μM. The cells were then exposed to these samples for 48 h, following which the culture medium was discarded. The cells were rinsed with pre-cooled PBS at 4 °C and subsequently inactivated by the addition of 80% methanol maintained at a temperature below −20 °C. The cells were scraped off and homogenized using a cell disruptor for 3 min in an ice bath. The homogenized samples were centrifuged at 7500× g for 20 min at 4 °C, and the resultant supernatant was collected and dried using nitrogen gas. The dried samples were redissolved in 80% methanol at −20 °C, vortexed for 1 min, sonicated for 30 s, and then centrifuged again at 7500× g for 20 min at 4 °C. A total of 10 μL was allocated from each sample and mixed as a quality control (QC) sample, while 5 μL of the supernatant was subjected to UPLC-MS/MSe data acquisition on the instrument. The entire procedure was repeated in parallel for all samples, with a total of six replicates performed.
Firstly, the raw data in the “.raw” format were imported into Progenesis QI software (Waters, Milford, MA, USA). This processing encompassed peak alignment, deconvolution, denoising, and other essential steps, resulting in the extraction of crucial information including retention time, charge-to-mass ratio, compound names, peak areas, and related parameters. To ensure data comparability and accuracy, each peak was then normalized against the total ion intensity, yielding a standardized matrix of retention time, peak area, and m/z values. […] Concurrently, the processed data were imported into SIMCA-P 14.0 software (Umetrics, Umeaa, Sweden) for advanced multivariate statistical analysis, encompassing principal component analysis (PCA) and supervised Orthogonal Partial Least Squares Discriminant Analysis (OPLS-DA). […]

[1] = system: 11β-hydroxysteroid dehydrogenase type 1 (11β-HSD1); test: ELISA of protein expression in LO2 cells: 11β-HSD1; conditions: 16 mM APAP, 600 μM, 48 h
Method: (§1) The expression levels of glutamylcysteine synthetase (GCL), glutathione synthetase (GS), and 11β-hydroxysteroid dehydrogenase type 1 (11β-HSD1) in cells were quantified using commercially available enzyme-linked immunosorbent assay (ELISA) kits (Shanghai Aimeng Youning Biotechnology Co., Ltd., Shanghai, China). Cells in the logarithmic growth phase were seeded into 6-well plates at a density of 3 × 10^4 cells per well, pre-incubated for 24 h, and subsequently exposed to 16 mM APAP with concurrent administration of MONO, DIAM, and MAGN at a final concentration of 600 μM for 48 h. Following three PBS washes, cells were harvested using cell scrapers. Total protein content was determined by the Bradford assay, and samples were normalized to equivalent protein concentrations prior to quantitative analysis of target proteins according to the manufacturer’s protocols.

[2] = system: glutamylcysteine synthetase (GCL); test: ELISA of protein expression in LO2 cells: GCL; conditions: 16 mM APAP, 600 μM, 48 h
Method: as §1

[3] = system: glutathione synthetase (GS); test: ELISA of protein expression in LO2 cells: GS; conditions: 16 mM APAP, 600 μM, 48 h
Method: as §1

## CC1(C)[C@@H](O[C@H]2O[C@H](C(=O)O)[C@@H](O)[C@H](O)[C@H]2O[C@@H]2O[C@H](C(=O)O)[C@@H](O)[C@H](O)[C@H]2O)CC[C@]2(C)[C@H]3C(=O)C=C4[C@@H]5C[C@@](C)(C(=O)O)CC[C@]5(C)CC[C@@]4(C)[C@]3(C)CC[C@@H]12 [DIAM, diammonium glycyrrhizinate]
LO2 cells; highest group DIAM vs MAGN
  FC of 3-(10Z)-10-Heptadecen-1-ylphenol: 1.68
  FC of 7-Dehydrocholesterol benzoate: >10
  FC of 8-Demethyl meiqx: 1.92
  FC of 25-Hydroxyvitamin D2: 3.85
  FC of Ammonium glycyrrhizate: 2.12
  FC of Argiotoxin 659: 2.98
  FC of Butyroin: 1.23
  FC of C14 Ceramide: 1.20
  FC of C16 Lactosylceramide (d18:1/16:0): 1.24
  FC of CETYL BENZOATE: 1.37
  FC of Cerlapirdine: >10
  FC of Ergocryptine: 1.92
  FC of Euscaphic acid: 4.79
  FC of Floctafenine: 4.41
  FC of Glabric acid: >10
  FC of Glycerol phenylbutyrate: 1.36
  FC of Glycyrrhetaldehyde: >10
  FC of Glycyrrhizin: 1.24
  FC of Gypsogenin: 1.79
  FC of N-eicosanoylsphinganine: 2.07
  FC of N-tetracosanoylsphinganine: >10
  FC of Onnamide A: 2.42
  FC of Pinnatoxin G: 1.55
  FC of Prednisolone sodium tetrahydrophthalic: 1.66
  FC of Pristimerin: 1.26
  FC of Propapyriogenin A2: 6.06
  FC of Sampangine: >10
  FC of Sphingosine-1-phosphate (d16:1): 3.78
  FC of Stanozolol: 1.81
  FC of Testosterone ketolaurate: 1.67
  FC of Tetrahydrospirilloxanthin: 1.29
  FC of Tirilazad: 1.74
  FC of Tisocalcitate: 1.39
  FC of Trametenolic acid: >10
  FC of Varespladib: 1.71
[1]
  11β-HSD1 expression: most pronounced upregulation

## CC1(C)[C@@H](O[C@H]2O[C@H](C(=O)O)[C@@H](O)[C@H](O)[C@H]2O[C@@H]2O[C@H](C(=O)O)[C@@H](O)[C@H](O)[C@H]2O)CC[C@]2(C)[C@H]3C(=O)C=C4[C@H]5C[C@@](C)(C(=O)O)CC[C@]5(C)CC[C@@]4(C)[C@]3(C)CC[C@@H]12 [MAGN, magnesium isoglycyrrhizinate]
LO2 cells; MAGN compared to DIAM
  GSH-to-GSSG ratio: stable
LO2 cells; highest group MAGN vs DIAM
  FC of Alpha-Cehc: 1.21
  FC of Dioleoylphosphatidylserine: 1.92
  FC of GSH: 1.24
  FC of GSSG: 1.28
  FC of Menaquinol-8: 1.68
  FC of N-[(15Z)-tetracosenoyl]sphing-4-enine-1-phosphocholine: 2.55
  FC of Solanidine: 1.32
[2]
  intracellular GCL levels: significantly elevated
[3]
  GS expression: remained comparable to DIAM-treated control
